{
  "source": "ChEMBL document CHEMBL4507320",
  "about": "“Data for DCP probe NVS-MALT1” (2021)",
  "key": {"[1]": {"molecular_target": "Sigma non-opioid intracellular receptor 1 (Homo sapiens, UniProt Q99720)", "assay": "GPCRScan assay: inhibition of Sigma 1", "set-up": "radioligand conc. used [nm] 4.0 – 5.0, parental cells HEKT"}, "[2]": {"molecular_target": "Muscarinic acetylcholine receptor M1 (Homo sapiens) (UniProt P11229)", "settings": "Compound concentration 10.0 uM"}, "[3]": {"molecular_target": "5-hydroxytryptamine receptor 7 (Homo sapiens, UniProt P34969)", "sequence (P34969 whole entry)": "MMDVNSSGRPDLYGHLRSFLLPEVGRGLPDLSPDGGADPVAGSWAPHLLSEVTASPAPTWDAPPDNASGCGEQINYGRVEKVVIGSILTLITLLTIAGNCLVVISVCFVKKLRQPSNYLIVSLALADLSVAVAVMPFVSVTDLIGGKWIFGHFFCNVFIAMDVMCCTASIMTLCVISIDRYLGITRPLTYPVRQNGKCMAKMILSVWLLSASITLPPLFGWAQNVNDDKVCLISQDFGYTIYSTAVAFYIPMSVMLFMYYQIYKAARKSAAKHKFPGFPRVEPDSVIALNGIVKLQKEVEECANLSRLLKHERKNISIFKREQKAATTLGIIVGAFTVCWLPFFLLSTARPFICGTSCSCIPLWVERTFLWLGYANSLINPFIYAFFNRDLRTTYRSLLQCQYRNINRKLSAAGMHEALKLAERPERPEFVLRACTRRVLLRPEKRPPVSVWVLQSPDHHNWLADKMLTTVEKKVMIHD", "assay": "GPCRScan assay: inhibition of 5-HT7A", "set-up": "radioligand conc. used [nm] 5.0 – 6.0, parental cells Stable HEK"}, "[4]": {"molecular_target": "Sigma intracellular receptor 2 (Homo sapiens, UniProt Q5BJF2)", "sequence (Q5BJF2 whole entry)": "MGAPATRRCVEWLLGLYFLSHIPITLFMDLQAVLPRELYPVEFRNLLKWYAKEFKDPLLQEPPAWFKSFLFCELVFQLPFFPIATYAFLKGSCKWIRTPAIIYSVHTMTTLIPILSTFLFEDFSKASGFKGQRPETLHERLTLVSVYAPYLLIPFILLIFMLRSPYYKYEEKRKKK", "assay": "GPCRScan assay: inhibition of Sigma 2", "set-up": "radioligand conc. used [nm] 5.0, parental cells HEKT"}, "[5]": {"molecular_target": "Cathepsin B (Homo sapiens) (UniProt P07858)", "assay": "Cathepsin B (h) Protease assay", "settings": "Compound concentration 10.0 uM"}, "[6]": {"molecular_target": "Procathepsin L (Homo sapiens) (UniProt P07711)", "sequence (P07711 114-333 limits assumed)": "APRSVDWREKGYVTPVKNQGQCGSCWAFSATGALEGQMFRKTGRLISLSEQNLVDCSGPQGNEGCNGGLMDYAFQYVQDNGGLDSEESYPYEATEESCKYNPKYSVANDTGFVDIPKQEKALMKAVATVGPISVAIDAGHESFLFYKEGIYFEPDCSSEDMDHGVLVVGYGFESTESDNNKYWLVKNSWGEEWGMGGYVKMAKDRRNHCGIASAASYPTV", "assay": "Cathepsin L (h) Protease assay", "settings": "Compound concentration 10.0 uM"}, "[7]": {"molecular_target": "Plasma kallikrein (Homo sapiens) (UniProt P03952)", "assay": "Plasma Kallikrein Protease assay", "settings": "Compound concentration 10.0 uM"}, "[8]": {"molecular_target": "Coagulation factor VII (Homo sapiens) (UniProt P08709)", "sequence (P08709 61-212 limits assumed)": "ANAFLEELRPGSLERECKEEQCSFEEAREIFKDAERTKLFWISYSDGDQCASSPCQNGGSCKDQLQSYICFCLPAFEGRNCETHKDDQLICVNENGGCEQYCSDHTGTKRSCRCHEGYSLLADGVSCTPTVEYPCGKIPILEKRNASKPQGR", "sequence (P08709 213-466 limits assumed)": "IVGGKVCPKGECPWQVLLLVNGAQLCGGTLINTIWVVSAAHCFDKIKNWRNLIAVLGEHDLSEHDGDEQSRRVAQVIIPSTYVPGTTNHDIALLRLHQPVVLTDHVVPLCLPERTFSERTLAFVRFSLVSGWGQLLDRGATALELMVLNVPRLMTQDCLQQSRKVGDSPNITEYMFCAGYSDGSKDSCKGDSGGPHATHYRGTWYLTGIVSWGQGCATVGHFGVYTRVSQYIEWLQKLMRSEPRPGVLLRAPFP", "assay": "Factor VIIa (h) Protease assay", "settings": "Compound concentration 10.0 uM"}, "[9]": {"molecular_target": "Cathepsin D (Homo sapiens) (UniProt P07339)", "sequence (P07339 65-162 limits assumed)": "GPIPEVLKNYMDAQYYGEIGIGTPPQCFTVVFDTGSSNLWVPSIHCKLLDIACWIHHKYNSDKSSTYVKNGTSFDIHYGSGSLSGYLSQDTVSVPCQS", "sequence (P07339 169-412 limits assumed)": "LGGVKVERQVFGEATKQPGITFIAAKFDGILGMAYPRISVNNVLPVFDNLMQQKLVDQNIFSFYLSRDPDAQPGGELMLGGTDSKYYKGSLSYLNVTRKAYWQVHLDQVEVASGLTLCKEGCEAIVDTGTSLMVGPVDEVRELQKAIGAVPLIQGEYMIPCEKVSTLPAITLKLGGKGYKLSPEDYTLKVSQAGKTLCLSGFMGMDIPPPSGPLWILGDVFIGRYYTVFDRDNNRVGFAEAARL", "assay": "Cathepsin D (h) Protease assay", "settings": "Compound concentration 10.0 uM"}, "[10]": {"molecular_target": "Beta-2 adrenergic receptor (Homo sapiens) (UniProt P07550)", "settings": "Compound concentration 10.0 uM"}, "[11]": {"molecular_target": "Beta-1 adrenergic receptor (Homo sapiens) (UniProt P08588)", "sequence (P08588 whole entry, looked up)": "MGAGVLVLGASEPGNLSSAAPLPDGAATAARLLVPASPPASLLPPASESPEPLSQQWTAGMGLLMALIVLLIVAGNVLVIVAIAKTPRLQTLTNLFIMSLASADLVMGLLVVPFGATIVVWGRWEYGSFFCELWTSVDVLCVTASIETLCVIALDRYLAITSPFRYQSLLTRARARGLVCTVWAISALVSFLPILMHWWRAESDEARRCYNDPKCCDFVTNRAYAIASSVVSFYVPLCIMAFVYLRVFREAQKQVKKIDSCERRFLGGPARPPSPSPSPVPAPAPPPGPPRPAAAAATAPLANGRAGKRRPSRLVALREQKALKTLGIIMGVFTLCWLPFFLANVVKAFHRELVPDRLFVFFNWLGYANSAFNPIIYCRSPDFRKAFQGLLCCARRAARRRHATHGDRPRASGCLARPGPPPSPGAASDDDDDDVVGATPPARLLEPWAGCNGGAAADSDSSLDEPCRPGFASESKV", "settings": "Compound concentration 10.0 uM"}, "[12]": {"molecular_target": "Neutrophil elastase (Homo sapiens) (UniProt P08246)", "sequence (P08246 whole entry)": "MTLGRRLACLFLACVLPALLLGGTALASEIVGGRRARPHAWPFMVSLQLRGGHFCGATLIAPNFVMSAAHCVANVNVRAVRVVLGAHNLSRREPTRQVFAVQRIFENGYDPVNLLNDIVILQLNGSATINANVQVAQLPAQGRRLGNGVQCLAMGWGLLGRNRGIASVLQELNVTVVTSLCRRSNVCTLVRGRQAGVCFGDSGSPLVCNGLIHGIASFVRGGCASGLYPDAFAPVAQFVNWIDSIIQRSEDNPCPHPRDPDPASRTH", "assay": "Neutrophil elastase 2 (h) Protease assay", "settings": "Compound concentration 10.0 uM"}, "[13]": {"molecular_target": "T1, Mucosa-associated lymphoid tissue lymphoma translocation protein 1 (Homo sapiens, UniProt Q9UDY8)", "T1 sequence (Q9UDY8 whole entry)": "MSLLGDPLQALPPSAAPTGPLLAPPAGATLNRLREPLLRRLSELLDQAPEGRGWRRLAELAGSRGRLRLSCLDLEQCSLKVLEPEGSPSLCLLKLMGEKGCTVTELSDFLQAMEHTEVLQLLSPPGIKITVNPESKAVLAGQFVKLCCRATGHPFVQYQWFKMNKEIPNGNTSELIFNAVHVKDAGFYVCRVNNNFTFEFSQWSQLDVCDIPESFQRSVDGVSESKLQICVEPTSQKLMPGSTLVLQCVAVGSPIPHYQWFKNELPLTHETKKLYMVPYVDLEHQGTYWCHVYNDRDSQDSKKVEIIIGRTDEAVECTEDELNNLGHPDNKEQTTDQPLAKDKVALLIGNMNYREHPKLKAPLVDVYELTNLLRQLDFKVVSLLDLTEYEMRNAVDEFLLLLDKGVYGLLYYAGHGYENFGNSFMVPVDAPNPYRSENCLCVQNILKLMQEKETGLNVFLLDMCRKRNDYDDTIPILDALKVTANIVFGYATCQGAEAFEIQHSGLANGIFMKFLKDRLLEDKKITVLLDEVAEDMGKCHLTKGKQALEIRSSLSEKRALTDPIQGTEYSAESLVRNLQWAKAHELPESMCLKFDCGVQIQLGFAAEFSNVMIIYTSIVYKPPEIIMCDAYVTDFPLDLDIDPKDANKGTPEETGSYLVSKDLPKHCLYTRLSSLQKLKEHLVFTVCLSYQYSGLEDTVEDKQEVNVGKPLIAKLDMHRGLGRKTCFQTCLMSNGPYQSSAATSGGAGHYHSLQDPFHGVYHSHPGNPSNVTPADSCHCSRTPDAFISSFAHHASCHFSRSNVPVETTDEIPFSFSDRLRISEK", "assay": "IL-2 – PMA + anti-CD28 + 50% Human whole blood", "assay_type": "tissue-based"}, "[14]": {"molecular_target": "Neutrophil collagenase (Homo sapiens) (UniProt P22894)", "sequence (P22894 101-467 limits assumed)": "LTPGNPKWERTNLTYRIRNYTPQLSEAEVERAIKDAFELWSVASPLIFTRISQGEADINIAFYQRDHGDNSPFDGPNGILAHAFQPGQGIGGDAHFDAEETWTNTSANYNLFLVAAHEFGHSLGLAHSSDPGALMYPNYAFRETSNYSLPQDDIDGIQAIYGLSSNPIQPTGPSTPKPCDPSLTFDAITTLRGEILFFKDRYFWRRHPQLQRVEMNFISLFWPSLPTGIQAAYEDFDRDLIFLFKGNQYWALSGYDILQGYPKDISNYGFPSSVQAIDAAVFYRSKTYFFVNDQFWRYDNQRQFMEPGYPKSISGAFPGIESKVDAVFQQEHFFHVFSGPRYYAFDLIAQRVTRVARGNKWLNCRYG", "assay": "MMP-8 (h) Protease assay", "settings": "Compound concentration 10.0 uM"}, "Caspase-3 (Homo sapiens)": {"molecular_target": "Caspase-3 (Homo sapiens) (UniProt P42574)", "sequence (P42574 29-175 limits assumed)": "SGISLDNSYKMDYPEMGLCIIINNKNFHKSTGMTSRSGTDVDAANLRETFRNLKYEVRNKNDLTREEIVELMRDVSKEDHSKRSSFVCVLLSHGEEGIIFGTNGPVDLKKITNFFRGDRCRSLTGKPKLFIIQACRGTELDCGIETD", "sequence (P42574 176-277 limits assumed)": "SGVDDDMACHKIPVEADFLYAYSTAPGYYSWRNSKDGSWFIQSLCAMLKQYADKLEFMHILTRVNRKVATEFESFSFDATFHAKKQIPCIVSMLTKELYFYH", "assay": "Caspase 3 (h) Protease assay", "settings": "Compound concentration 10.0 uM"}, "[15]": {"molecular_target": "Receptor-type tyrosine-protein kinase FLT3 (Homo sapiens, UniProt P36888)", "sequence (P36888 whole entry)": "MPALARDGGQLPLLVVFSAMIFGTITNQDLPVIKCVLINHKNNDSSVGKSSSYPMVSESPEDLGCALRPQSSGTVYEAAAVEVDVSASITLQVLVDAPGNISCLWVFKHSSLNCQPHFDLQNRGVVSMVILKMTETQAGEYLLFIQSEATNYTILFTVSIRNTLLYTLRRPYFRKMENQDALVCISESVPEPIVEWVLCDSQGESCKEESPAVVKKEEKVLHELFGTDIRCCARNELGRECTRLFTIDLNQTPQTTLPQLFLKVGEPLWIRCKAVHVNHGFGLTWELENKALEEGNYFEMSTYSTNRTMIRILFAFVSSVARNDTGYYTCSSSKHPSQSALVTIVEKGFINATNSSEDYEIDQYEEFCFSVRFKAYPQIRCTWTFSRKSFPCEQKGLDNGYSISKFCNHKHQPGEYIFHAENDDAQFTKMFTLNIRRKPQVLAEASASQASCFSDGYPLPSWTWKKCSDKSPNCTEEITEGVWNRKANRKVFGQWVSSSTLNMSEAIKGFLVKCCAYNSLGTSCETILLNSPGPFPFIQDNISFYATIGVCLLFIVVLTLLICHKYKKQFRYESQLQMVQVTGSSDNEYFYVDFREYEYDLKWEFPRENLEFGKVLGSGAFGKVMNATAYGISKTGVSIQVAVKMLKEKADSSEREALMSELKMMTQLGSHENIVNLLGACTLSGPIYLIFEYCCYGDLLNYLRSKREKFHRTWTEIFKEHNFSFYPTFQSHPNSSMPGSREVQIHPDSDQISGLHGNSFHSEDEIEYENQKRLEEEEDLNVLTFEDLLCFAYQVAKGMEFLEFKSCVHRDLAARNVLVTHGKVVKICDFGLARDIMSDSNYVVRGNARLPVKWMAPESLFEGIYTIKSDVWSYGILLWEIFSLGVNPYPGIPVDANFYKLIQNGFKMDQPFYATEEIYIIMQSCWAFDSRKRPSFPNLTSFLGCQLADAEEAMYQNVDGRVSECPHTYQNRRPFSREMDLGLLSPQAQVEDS", "assay": "Kinase panel", "set-up": "compound concentration 10 uM"}, "Chymase (Homo sapiens)": {"molecular_target": "Chymase (Homo sapiens) (UniProt P23946)", "assay": "Chymase (h) Protease assay", "settings": "Compound concentration 10.0 uM"}, "[16]": {"molecular_target": "Histamine H3 receptor (Homo sapiens) (UniProt Q9Y5N1)", "sequence (Q9Y5N1 whole entry)": "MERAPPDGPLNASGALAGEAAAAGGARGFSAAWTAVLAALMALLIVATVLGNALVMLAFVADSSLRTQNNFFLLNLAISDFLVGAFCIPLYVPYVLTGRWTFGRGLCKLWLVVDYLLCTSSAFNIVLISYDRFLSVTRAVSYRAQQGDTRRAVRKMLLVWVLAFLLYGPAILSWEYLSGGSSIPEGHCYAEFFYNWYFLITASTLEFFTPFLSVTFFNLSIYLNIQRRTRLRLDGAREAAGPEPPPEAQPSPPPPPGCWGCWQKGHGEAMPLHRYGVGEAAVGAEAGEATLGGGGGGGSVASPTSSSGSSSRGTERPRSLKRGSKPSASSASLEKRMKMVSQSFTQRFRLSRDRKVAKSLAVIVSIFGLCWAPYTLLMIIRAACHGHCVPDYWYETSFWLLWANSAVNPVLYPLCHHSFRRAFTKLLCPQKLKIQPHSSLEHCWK", "settings": "Compound concentration 10.0 uM"}, "[17]": {"molecular_target": "Prothrombin (Homo sapiens) (UniProt P00734)", "assay": "Thrombin (h) Protease assay", "settings": "Compound concentration 10.0 uM"}, "Trypsin (Homo sapiens)": {"molecular_target": "Trypsin (Homo sapiens) (UniProt P07477+P07478+P35030)", "assay": "Trypsin (h) Protease assay", "assay_type": "protein assay", "settings": "Compound concentration 10.0 uM"}, "[18]": {"molecular_target": "Cathepsin G (Homo sapiens) (UniProt P08311)", "sequence (P08311 whole entry)": "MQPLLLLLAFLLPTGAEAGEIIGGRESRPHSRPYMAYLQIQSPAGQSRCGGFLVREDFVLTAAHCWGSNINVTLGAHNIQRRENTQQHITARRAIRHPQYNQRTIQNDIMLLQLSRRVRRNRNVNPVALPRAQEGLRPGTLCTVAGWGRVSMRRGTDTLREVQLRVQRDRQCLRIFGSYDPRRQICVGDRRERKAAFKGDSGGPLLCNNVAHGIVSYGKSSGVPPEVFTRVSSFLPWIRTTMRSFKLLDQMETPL", "assay": "Cathepsin G (h) Protease assay", "settings": "Compound concentration 10.0 uM"}, "[19]": {"molecular_target": "Cathepsin K (Homo sapiens) (UniProt P43235)", "assay": "Cathepsin K (h) Protease assay", "settings": "Compound concentration 10.0 uM"}, "[20]": {"molecular_target": "T1, Mucosa-associated lymphoid tissue lymphoma translocation protein 1", "assay": "Human biochemical (TR-FRET) assay (low salt)"}},
  "note": "pKi: −log10 of the molar value. Calls of active or inactive are those of the source. The rule behind the calls is not given here.",
  "data": [
    {"smiles": "CO[C@@H](C)c1c(Nc2ccc([C@@H](N(C)C(=O)C3CCS(=O)(=O)CC3)C(F)(F)F)cc2)cnc2cc(Cl)nn12", "note": "[NVS-MALT1-C]", "values": [
      {"measurement": "pKi", "setting": "[1]", "result": 5.80},
      {"measurement": "inhibition", "setting": "[2]", "result": -2.39, "unit": "%"},
      {"measurement": "pKi", "setting": "[3]", "result": 5.00},
      {"measurement": "pKi", "setting": "[4]", "result": 6.05}
    ]},
    {"smiles": "CO[C@@H](C)c1c(Nc2ccc([C@H](N(C)C(=O)C3CCS(=O)(=O)CC3)C(F)(F)F)cc2)cnc2cc(Cl)nn12", "note": "[NVS-MALT1]", "values": [
      {"measurement": "inhibition", "setting": "[5]", "result": -4, "unit": "%"},
      {"measurement": "inhibition", "setting": "[6]", "result": -3, "unit": "%"},
      {"measurement": "inhibition", "setting": "[7]", "result": 5, "unit": "%"},
      {"measurement": "inhibition", "setting": "[8]", "result": -1, "unit": "%"},
      {"measurement": "inhibition", "setting": "[9]", "result": 0, "unit": "%"},
      {"measurement": "inhibition", "setting": "[10]", "result": 26.7, "unit": "%"},
      {"measurement": "inhibition", "setting": "[11]", "result": 20.6, "unit": "%"},
      {"measurement": "inhibition", "setting": "[12]", "result": -1, "unit": "%"},
      {"measurement": "IC50", "setting": "[13]", "result": "200 nM (active)"},
      {"measurement": "inhibition", "setting": "[14]", "result": 0, "unit": "%"},
      {"measurement": "inhibition", "setting": "Caspase-3 (Homo sapiens)", "result": -1, "unit": "%"},
      {"measurement": "IC50", "setting": "[15]", "result": "3500 nM (active)"},
      {"measurement": "inhibition", "setting": "Chymase (Homo sapiens)", "result": -3, "unit": "%"},
      {"measurement": "inhibition", "setting": "[16]", "result": -5.74, "unit": "%"},
      {"measurement": "inhibition", "setting": "[17]", "result": 0, "unit": "%"},
      {"measurement": "inhibition", "setting": "Trypsin (Homo sapiens)", "result": 0.8, "unit": "%"},
      {"measurement": "inhibition", "setting": "[18]", "result": 7, "unit": "%"},
      {"measurement": "inhibition", "setting": "[19]", "result": 2, "unit": "%"},
      {"measurement": "IC50", "setting": "[20]", "result": "18 nM (active)"}
    ]}
  ]
}
